We go through two compounds from US20260000079A1, “COMPOSITIONS AND METHODS FOR MODULATING IMMUNITY IN PLANTS” (BOYCE THOMPSON INSTITUTE FOR PLANT RESEARCH, INC., priority 2019, published 2026).

One data set concerns tomato leaves. In words: LC-MS analysis of tomato leaves infiltrated with ascr #18. Format: in vivo, Solanum lycopersicum. Particulars: 4-week old tomato plants infiltrated with 1 μM ascr #18. An excerpt: FIG. 2A provides LC-MS analysis of tomato roots treated with ascr #18 or ^13C2-labeled ascr #18. Plants treated with ^13C2-labeled ascr #18 show peaks at 333.21932 and 249.12542, representing [M-H]^− of ^13C2-ascr #18 and ^13C2-ascr #9, but not at 331.21261 and 247.11871, which correspond to [M-H]^− of ascr #18 and ascr #9, and vice versa. Structures of ascr #18 and ascr #9 indicating the positions of the ^13C2-label are shown above ion chromatograms. Peaks marked with an asterisk represent unrelated peaks. FIGS. 2B and 2C provide graphs showing the relative abundances of ascr #18 and ascr #9, respectively, as measured by LC-MS. Four-week old Arabidopsis leaves were infiltrated with 1 μM ascr #18, and leaf tissue were harvested for LC-MS analyses over a period of 96 hours post infiltration of ascr #18. Data are averages±SEM (n=3). FIG. 2D provides LC-MS analyses of tomato leaves infiltrated with 1 μM ascr #18. Tissues were collected over a 12 hour period. Abundances of ascr #18 and ascr #9 are shown as the peak area, as measured by LC-MS. […] To test whether microbes are required for the observed metabolic transformations, leaves of 4-week old Arabidopsis plants were directly infiltrated with ascr #18 and leaf tissue was subsequently harvested for analysis by LC-MS as above. […]

Data set [1] relates to entomopathogenic nematode species. Conditions: Kaplan, et al. (2012); cited from earlier work.
Data set [2] concerns Pseudomonas syringae DC3000. Nature of the data set: Bacterial growth assay in ascr #18-pretreated Arabidopsis. In kind it is in vivo, Pseudomonas syringae pv. tomato. Particulars: 1 μM, 24 hours pretreatment; acx1acx5 and wildtype Arabidopsis. As for the experimental part: FIG. 4A provides a schematic of the experimental designs for assessing activation of defense pathways and resistance to nematodes and bacteria. […] Bacterial growth was assayed 3 days post inoculation. Data are averages±s.d. (n=17). […] Arabidopsis seedlings were treated with buffer or the indicated concentrations of ascr #18 for 48 hours before inoculation with approximately 300 freshly hatched M. incognita J2 larvae. The numbers of root galls of infected plants were counted 6 weeks post inoculation. Data are averages±s.d. (n≥15). […] Larvae touching root tips (FIG. 4D) or the whole area of roots (FIG. 4E) were counted at 6 hours post seedling transfer. […] Transcript levels were determined by qRT-PCR and plotted as relative fold-change compared to mock treated plants. […]
Given the rapid conversion of ascr #18 into shorter-chained ascarosides via pβo, the inventors investigated whether metabolism of the pathogen-produced compound ascr #18 produced by plant pathogenic nematodes is required for the activation of plant defense responses and resistance to other non-nematode pathogens. […] To test whether ascaroside metabolism plays a role in ascr #18-mediated enhanced resistance to a bacterial pathogen, the effect of ascr #18 treatment on infection with Pseudomonas syringae DC3000 was evaluated in the acx1acx5 mutant and wildtype Arabidopsis.

The subject of a further data set is Meloidogyne incognita. Nature of the data set: Arabidopsis nematode infection assay (root galls). In kind it is in vivo. Conditions: 48 hours root pretreatment. As for the experimental part:
FIG. 4A provides a schematic of the experimental designs for assessing activation of defense pathways and resistance to nematodes and bacteria. […] Bacterial growth was assayed 3 days post inoculation. Data are averages±s.d. (n=17). […] Arabidopsis seedlings were treated with buffer or the indicated concentrations of ascr #18 for 48 hours before inoculation with approximately 300 freshly hatched M. incognita J2 larvae. The numbers of root galls of infected plants were counted 6 weeks post inoculation. Data are averages±s.d. (n≥15). […] Arabidopsis seedlings were treated with the indicated concentrations of ascr #18 for 48 hours before transfer into 12-well plates containing Pluronic® F-127 gel with ˜200 freshly hatched M. incognita J2 larvae. Larvae touching root tips (FIG. 4D) or the whole area of roots (FIG. 4E) were counted at 6 hours post seedling transfer. Data are average±s.d. (n=12). […] Transcript levels were determined by qRT-PCR and plotted as relative fold-change compared to mock treated plants. Data are averages±s.d (n≥6). *P≤0.05; **P≤0.005; ***P≤0.0005; two-tailed t-test.
For Arabidopsis nematode infection assays, Meloidogyne incognita was propagated and hatched as described (Manosalva, et al. (2015) Nat. Commun. 6:7795). Briefly, M. incognita were propagated on tomato (Solanum lycopersicum cv. Tiny Tim). M. incognita eggs were then isolated from egg masses on tomato roots with 0.5% sodium hypochlorite and rinsed with water on a 25-μm sieve. Collected nematode eggs were treated in a solution of 0.02% sodium azide for 20 minutes, and then hatched over water containing 1.5 mg/mL gentamycin sulfate and 0.05 mg/mL nystatin at room temperature on a Baermann pan for three days. Hatched second-stage juveniles (J2) were collected, surface sterilized with an aqueous solution of mercuric chloride (0.004%) and sodium azide (0.004%) for 10 minutes, and rinsed three times with sterile distilled water. […] Galls for M. incognita were counted under a microscope six weeks after inoculation. […]

The test system of data set [3] is MAPK, jasmonic acid and salicylic acid signaling pathways. Conditions: Manosalva, et al. (2015); cited from earlier work.
Data set [4] deals with bacteria, viruses, fungi, oomycetes, and nematodes. Particulars: Manosalva, et al. (2015); cited from earlier work.

Regarding `C[C@H](CCC(=O)O)O[C@@H]1O[C@@H](C)[C@H](O)C[C@H]1O` [ascr #9], in the data set with tomato leaves, the “formation of ascr #9 in leaves” value is “observed”. Moreover, the dispersal behavior result in data set [1] is on record as “mediate dispersal behavior”.
In the case of `CC1O[C@@H](O[C@@H](C)CCCCCCCCC(=O)O)C(O)C[C@H]1O` (stereo in doubt) [ascr #18, (10R)-(3′R,5′R-dihydroxy-6′S-methyl-(2H)-tetrahydropyran-2-yloxy)-undecanoic acid], the “protection against P. syringae infection (bacterial growth 3 days post inoculation)” value in data set [2] was “comparable levels of protection”. The “protection against M. incognita (root galls 6 weeks post inoculation)” value is “no effect” in the data set with Meloidogyne incognita (acx1acx5 mutant); “significant protection” with Meloidogyne incognita (wildtype, 10 nM); “significant protection” with Meloidogyne incognita (wildtype, 50 nM). Further, the “activation of defense signaling pathways in monocots and dicots” value in data set [3] is recorded as “activation of conserved defense signaling pathways”. The “resistance of plants to pathogens” value in data set [4] was “enhance resistance of monocot and dicot plants to a wide range of pathogens”.
